Counter-ions that a name gives are not always drawn.
Biological target: T1, full length SGK1 (Homo sapiens, UniProt O00141)
T1 construct: 125 μM full length SGK1 (Life Technologies Part #PR7358A); purchased Life Technologies PR7358A
T1 sequence (O00141 1-431): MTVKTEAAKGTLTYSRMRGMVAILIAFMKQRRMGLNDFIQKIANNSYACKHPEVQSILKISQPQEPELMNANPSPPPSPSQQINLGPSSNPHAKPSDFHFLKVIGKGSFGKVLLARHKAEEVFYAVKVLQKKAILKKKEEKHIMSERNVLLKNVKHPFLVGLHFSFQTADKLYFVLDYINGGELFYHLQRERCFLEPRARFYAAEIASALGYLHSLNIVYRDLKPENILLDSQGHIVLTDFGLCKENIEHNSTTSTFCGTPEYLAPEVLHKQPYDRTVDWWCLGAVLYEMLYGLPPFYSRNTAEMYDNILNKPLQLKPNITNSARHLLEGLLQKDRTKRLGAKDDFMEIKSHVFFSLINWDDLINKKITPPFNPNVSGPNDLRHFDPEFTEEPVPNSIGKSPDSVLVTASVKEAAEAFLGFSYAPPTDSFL
Test: SGK1 inhibition Assay A (Caliper LabChip electrophoretic separation of fluorescent peptide substrate and phosphorylated product)
Type: biochemical
Details: Assay A; 20 μM ATP, 40 min incubation; read-out: SGK1 IC50

| Structure (SMILES) | IC50 |
| --- | --- |
| C[C@@]1(NC(=O)c2ccc(Cl)s2)CCCN(c2cc(-c3ccc(S(C)(=O)=O)cc3)n3ncnc(N)c23)C1 [Example 146, (R)—N-(1-(4-amino-7-(4-(methylsulfonyl)phenyl)pyrrolo[2,1-f][1,2,4]triazin-5-yl)-3-methylpiperidin-3-yl)-5-chlorothiophene-2-carboxamide, TFA] | 835 nM |
| CC(=O)N1CC=C(c2cc(N3CCC[C@@H](NC(=O)c4sc(Cl)cc4OC4CN(CCO)C4)C3)c3c(N)ncnn23)C1 [Example 578, (R)-N-(1-(7-(1-acetyl-2,5-dihydro-1H-pyrrol-3-yl)-4-aminopyrrolo[2,1-f][1,2,4]triazin-5-yl)piperidin-3-yl)-5-chloro-3-((1-(2-hydroxyethyl)azetidin-3-yl)oxy)thiophene-2-carboxamide] | 17 nM |
| CC(=O)N1CCC(Oc2cc(C(F)F)sc2C(=O)N[C@@H]2CCCN(c3cc(-c4cnc(C#N)c(C)c4)n4ncnc(N)c34)C2)CC1 [Example 415, (R)-3-((1-acetylpiperidin-4-yl)oxy)-N-(1-(4-amino-7-(6-cyano-5-methylpyridin-3-yl)pyrrolo[2,1-f][1,2,4]triazin-5-yl)piperidin-3-yl)-5-(difluoromethyl)thiophene-2-carboxamide] | 8 nM |
| COc1ncccc1C(=O)N[C@@H]1CCCN(c2cc(C3=CCN(C(C)=O)C3)n3ncnc(N)c23)C1 [Example 718, (R)-N-(1-(7-(1-acetyl-2,5-dihydro-1H-pyrrol-3-yl)-4-aminopyrrolo[2,1-f][1,2,4]triazin-5-yl)piperidin-3-yl)-2-methoxynicotinamide] | 26 nM |
| CS(=O)(=O)c1ccc(-c2cc(N3CCC[C@@H](NC(=O)c4ccccc4OC(F)F)C3)c3c(N)ncnn23)cc1 [Example 58, (R)-N-(1-(4-amino-7-(4-(methylsulfonyl)phenyl)pyrrolo[2,1-f][1,2,4]triazin-5-yl)piperidin-3-yl)-2-(difluoromethoxy) benzamide, TFA] | 854 nM |
| N=c1ccc(-c2cc(N3CCC[C@@H](NC(=O)c4ccc(Cl)s4)C3)c3c(N)ncnn23)cn1C(F)F [Example 683] | 193 nM |
| Nc1ncnn2c(-c3cncnc3)cc(N3CCC[C@@H](NC(=O)c4cc5ccccc5[nH]4)C3)c12 [Example 508, (R)-N-(1-(4-amino-7-(pyrimidin-5-yl)pyrrolo[2,1-f][1,2,4]triazin-5-yl)piperidin-3-yl)-1H-indole-2-carboxamide] | 195 nM |
| CC(=O)N1CC=C(c2cc(N3CCC[C@@H](NC(=O)c4sc(C5CC5)cc4OC4CCN(C(C)C)CC4)C3)c3c(N)ncnn23)C1 [Example 377, (R)-N-(1-(7-(1-acetyl-2,5-dihydro-1H-pyrrol-3-yl)-4-aminopyrrolo[2,1-f][1,2,4]triazin-5-yl)piperidin-3-yl)-5-cyclopropyl-3-((1-isopropylpiperidin-4-yl)oxy)thiophene-2-carboxamide] | 35 nM |
| CN(C)CCOc1cc(Cl)sc1C(=O)N[C@@H]1CCCN(c2cc(C3=CCN(C(=O)C4CCC4)CC3)n3ncnc(N)c23)C1 [Example 183, (R)-N-(1-(4-amino-7-(1-(cyclobutanecarbonyl)-1,2,3,6-tetrahydropyridin-4-yl)pyrrolo[2,1-f][1,2,4]triazin-5-yl)piperidin-3-yl)-5-chloro-3-(2-(dimethylamino)ethoxy) thiophene-2-carboxamide, 2 TFA] | 42 nM |
| CC(=O)N1CC=C(c2cc(N3CCC[C@@H](NC(=O)c4cccc(NCC5CN(C)C5)n4)C3)c3c(N)ncnn23)C1 [Example 780, (R)-N-(1-(7-(1-acetyl-2,5-dihydro-1H-pyrrol-3-yl)-4-aminopyrrolo[2,1-f][1,2,4]triazin-5-yl)piperidin-3-yl)-6-(((1-methylazetidin-3-yl)methyl)amino)picolinamide] | 25 nM |
| COC(=O)N1CC=C(c2cc(N3CCC[C@@H](NC(=O)c4sc(Cl)cc4OC4CN(C5CCOCC5)C4)C3)c3c(N)ncnn23)C1 [Example 573, Methyl (R)-3-(4-amino-5-(3-(5-chloro-3-((1-(tetrahydro-2H-pyran-4-yl)azetidin-3-yl)oxy)thiophene-2-carboxamido)piperidin-1-yl)pyrrolo[2,1-f][1,2,4]triazin-7-yl)-2,5-dihydro-1H-pyrrole-1-carboxylate] | 73 nM |

These reach a lower IC50. Values come first.

| IC50 | Structure (SMILES) |
| --- | --- |
| 3 nM | COC(=O)N1CC=C(c2cc(N3CCC[C@@H](NC(=O)c4sc(Cl)cc4OC4CCN(C(C)=O)CC4)C3)c3c(N)ncnn23)C1 [Example 565, methyl (R)-3-(5-(3-(3-((1-acetylpiperidin-4-yl)oxy)-5-chlorothiophene-2-carboxamido)piperidin-1-yl)-4-aminopyrrolo[2,1-f][1,2,4]triazin-7-yl)-2,5-dihydro-1H-pyrrole-1-carboxylate] |
| 6 nM | CN(C)CCOc1cc(Cl)sc1C(=O)N[C@@H]1CCCN(c2cc(C3=CCN(C(=O)C4CCC4)C3)n3ncnc(N)c23)C1 [Example 178, (R)-N-(1-(4-amino-7-(1-(cyclobutanecarbonyl)-2,5-dihydro-1H-pyrrol-3-yl)pyrrolo[2,1-f][1,2,4]triazin-5-yl)piperidin-3-yl)-5-chloro-3-(2-(dimethylamino)ethoxy) thiophene-2-carboxamide, 2 TFA] |
| 2 nM | CC(=O)N1CC=C(c2cc(N3CCC[C@@H](NC(=O)c4sc(Cl)cc4OCC4CCCN4)C3)c3c(N)ncnn23)C1 (single isomer, unassigned) [Example 391D] |
| 3 nM | Cc1cc(COCCN2CCOCC2)c(C(=O)N[C@@H]2CCCN(c3cc(-c4ccnc(F)c4)n4ncnc(N)c34)C2)s1 [Example 201, (R)—N-(1-(4-amino-7-(2-fluoropyridin-4-yl)pyrrolo[2,1-f][1,2,4]triazin-5-yl)piperidin-3-yl)-5-methyl-3-((2-morpholinoethoxy)methyl)thiophene-2-carboxamide, 2 TFA] |
| 5 nM | CC(C)N1CCC(Oc2cc(C3CC3)sc2C(=O)N[C@@H]2CCCN(c3cc(-c4ccc(C#N)nc4)n4ncnc(N)c34)C2)CC1 [Example 382, (R)-N-(1-(4-amino-7-(6-cyanopyridin-3-yl)pyrrolo[2,1-f][1,2,4]triazin-5-yl)piperidin-3-yl)-5-cyclopropyl-3-((1-isopropylpiperidin-4-yl)oxy)thiophene-2-carboxamide] |
| 5 nM | Nc1ncnn2c(-c3ccnc(F)c3)cc(N3CCC[C@@H](NC(=O)c4cc(Cl)c(Cl)s4)C3)c12 [Example 150, (R)-N-(1-(4-amino-7-(2-fluoropyridin-4-yl)pyrrolo[2,1-f][1,2,4]triazin-5-yl)piperidin-3-yl)-4,5-dichlorothiophene-2-carboxamide] |
| 5 nM | CC(=O)N1CC=C(c2cc(N3CCC[C@@H](NC(=O)c4cccc(N5CCNC(C(F)(F)F)C5)n4)C3)c3c(N)ncnn23)C1 (stereo partly drawn) [Example 776, N-((R)-1-(7-(1-acetyl-2,5-dihydro-1H-pyrrol-3-yl)-4-aminopyrrolo[2,1-f][1,2,4]triazin-5-yl)piperidin-3-yl)-6-(3-(trifluoromethyl)piperazin-1-yl)picolinamide] |
| 1 nM | Nc1ncnn2c(-c3ccnc(C(F)F)c3)cc(N3CCC[C@@H](NC(=O)c4cc5ccccc5[nH]4)C3)c12 [Example 488, (R)-N-(1-(4-amino-7-(2-(difluoromethyl)pyridin-4-yl)pyrrolo[2,1-f][1,2,4]triazin-5-yl)piperidin-3-yl)-1H-indole-2-carboxamide] |
